Entries after “also recorded” stand apart in the source; their conditions may differ. Where a name gives a salt, the structure may show the parent alone. Read-outs that look alike come from different tables or passages of the source.
Legend:
[1] = Stability of drugs and suspensions after gamma irradiation (chromatographic analysis)
Protocol: Aseptic formulation of thixotropic pharmaceutical compositions was conducted in accordance with the teachings of the present invention as follows. […] Following the sizing operation, each individual drug was divided into lots, which were then placed in an atmosphere of either argon or air. Each lot was then sterilized using 1.0 or 2.5 Mrad of gamma radiation applied to the lots of each drug under argon or air. Concomitantly, colloidal silicon dioxide was sterilized using dry heat while perfluorodecalin was sterile filtered. The three components were then combined aseptically and blended using a high shear dispenser. The thixotropic pharmaceutical compositions were then analyzed by chromatographic techniques to determine the effect of gamma radiation on the stability of the ten drugs sterilized either in air or in the argon environment.

[2] = cited from earlier work; for Density / Kin. viscosity / Specific heat / Surface tension: 25° C.; for Boiling point: ambient pressure
rabbit eyes [3] = tested on: rabbit eyes
Protocol: As a control, an aqueous solution containing the same amount of drug was prepared. The final concentration of the brimonidine in both formulations was 0.1% w/v. The nonaqueous thixotropic compositions of the present invention were administered in a low dose volume of 8 μl, while the prior art aqueous control was administered in a volume of 50 μl. The drugs were administered to one eye of the rabbit with both eyes subsequently monitored for changes in intraocular pressure.

glaucomatous monkeys [4] = assay: Intraocular pressure after levo-bunolol in conscious, glaucomatous monkeys; format: in vivo, monkey; conditions: 0.25% w/v, 8 μl thixotropic versus approximately 35 μl aqueous
Protocol: (§1) To illustrate the high localized drug bioavailability and correspondingly low systemic side effects of the present invention, a pharmacology study was conducted on conscious, glaucomatous monkeys. Formulations of 0.25% w/v levo-bunolol, used to reduce intraocular pressure in glaucoma patients, were administered as an aqueous solution and as a thixotropic pharmaceutical composition made in accordance with the teachings of the present invention. The monkeys were monitored for reductions in intraocular pressure, indicating the desired localized drug action, and for changes in heart rate, indicating undesirable drug migration away from the target site and into the systemic circulation. The thixotropic compositions were administered in low dose volume 8 μl drops while the aqueous formulations were administered in prior art drop volumes of approximately 35 μl. FIG. 13A is the mean reduction in heart rate for the monkeys treated with the aqueous solution of the drug while FIG. 13B is the mean reduction in heart rate for the monkeys treated with the nonaqueous formulation.

glaucomatous monkeys [5] = assay: Heart rate after topical levo-bunolol in conscious, glaucomatous monkeys; format: in vivo, monkey
Protocol: as §1

CHO cells = assay: Chinese hamster ovary (CHO) clonal cytotoxicity assay; format: cell-based; conditions: three-hour exposure
Protocol: To confirm the lack of toxicity associated with the thixotropic compositions of the present invention, a Chinese hamster ovary (CHO) clonal assay was performed to measure the cytotoxic effects of CSD and perfluorodecalin on cell viability. As is well-known in the art, the CHO clonal assay is extremely sensitive and is often used to test pharmaceutical composition toxicity. Different cell populations were exposed to 0.5% w/v CSD in perfluorodecalin, and from 0.01% to 0.1% w/v AGN 191053 dispersed in a suspension of 0.5% w/v CSD in perfluorodecalin. Straight perfluorodecalin was used as a negative control with a three-hour exposure period for each formulation tested.

[6] = tested on: eyes of New Zealand albino rabbits; assay: Ocular toxicity of CSD in perfluorodecalin, gross and slit lamp examination; format: in vivo, rabbit
Protocol: More specifically, CSD dispersions of 2% w/v, 1% w/v and 0.5% w/v were prepared as in Example 1 and topically administered to the rabbits six times, at one hour intervals. Dose volumes of 8 μl were used for each dispersion along with a perfluorodecalin control. Following the six topical installations, each of the eyes was subjected to gross and slit lamp examination.

[7] = Flow curve analysis fitted to the Cross model (viscosity, yield stress); format: physicochemical
Protocol: In order to determine the stress threshold at which the CSD network collapsed, stress sweeps were run on the five dispersions formulated in Example 1. The stress sweeps were conducted using a Carri-med and CNMR CS 100 rheometer with an optical encoder upgrade. The measuring geometry for all the CSD/perfluorodecalin dispersions was a 4 cm SS Flat Plate with solvent trap. The gap, selected after conducting probe studies using the 2.5% w/v CSD/perfluorodecalin dispersion, was set at 250 μm for the stress sweeps. The measuring geometry for perfluorodecalin was a recessed concentric cylinder and cup set at a 4 mm gap. These stress studies were run at 15° C. to minimize the evaporation of perfluorodecalin. For longer experiments (greater than 10 minutes), a cover was placed over the Flat Plate to prevent perfluorodecalin vaporization. FIG. 1 plots delta versus shear stress for each of the dispersions. Delta is the phase of the actual curve relative to the applied sinusoidal stress. […] This stress threshold is CSD concentration dependent and indicates the presence of an elastic three-dimensional network at low or resting stresses (i.e. low delta values). […]
To further characterize the rheology of the dispersions formulated in Example 1, complete flow curves, fit to the Cross model, were generated over a broad range of shear rates. […] Yield stresses were calculated from flow curve data.

rabbit eyes [8] = assay: Pupil diameter change after pilocarpine; format: in vivo
Protocol: Three different concentrations of pilocarpine were formulated as prior art aqueous solutions and as exemplary nonaqueous thixotropic pharmaceutical compositions according to the teachings of the present invention. Specifically, aqueous solutions and nonaqueous suspensions of 0, 0.1%, 0.5% and 2% pilocarpine were formulated under sterile conditions. The nonaqueous drug suspensions were made using 0.5% CSD uniformly dispersed in perfluorodecalin. Both sets of formulations were administered to rabbit eyes in drop volumes of 8 μl using positive displacement pipettes. Changes in pupil diameter were monitored with three rabbits being used for each concentration of each formulation. In particular, FIG. 12A illustrates the effects of the three different concentrations of […] administered using the nonaqueous vehicle while FIG. 12B illustrates equivalent data for the prior art solubilized aqueous pilocarpine.

[9] = 1.0 or 2.5 Mrad, under argon or air

Compound: Brc1c(NC2=NCCN2)ccc2nccnc12 [AGN 190342]
- activity lost after gamma radiation [1]: No more than 5%

Compound: FC1(F)C(F)(F)C(F)(F)C2(F)C(F)(C1(F)F)C(F)(F)C(F)(F)C1(F)C(F)(F)C(F)(F)C(F)(F)C(F)(F)C12F (centres unmarked) [PPP, perfluoroperhydrophenanthrene]
- Density [2]: 2.016 gms/mL
- Kin. viscosity [2]: 8.0 cSt
- Specific heat [2]: 0.27 g-cal/gm
- Surface tension [2]: 21.6 dynes/cm
- Boiling point [2]: 215 °C

Compound: O [Water]
- Density [2]: 1.000 gms/mL
- Kin. viscosity [2]: 1.00 cSt
- Specific heat [2]: 1.00 g-cal/gm
- Surface tension [2]: 72.0 dynes/cm

Compound: Brc1c(NC2=NCCN2)ccc2nccnc12 [brimonidine]
- peak mean intraocular pressure reduction, treated eye (rabbit eyes [3]; 0.1% w/v, 8 μl thixotropic versus 50 μl aqueous): comparable to the much larger aqueous based prior art dosage
- intraocular pressure response, untreated eye (rabbit eyes [3]; aqueous solution 0.1% w/v, 50 μl): undesirable pressure reduction in untreated eyes
- intraocular pressure response, untreated eye (rabbit eyes [3]; thixotropic composition 0.1% w/v, 8 μl, versus aqueous control): significantly less intraocular pressure response in the untreated eye; also recorded: significant lower decrease in intraocular pressure in the untreated eyes

Compound: CNCC(O)c1ccc(OC(=O)C(C)(C)C)c(OC(=O)C(C)(C)C)c1 (centres unmarked) [dipivalylepinephrine HCl]
- activity lost after gamma radiation [1]: No more than 5%

Compound: CC(C)(C)NC[C@H](O)COc1cccc2c1CCCC2=O [levo-bunolol HCl]
- activity lost after gamma radiation [1]: No more than 5%

Compound: CC(C)(C)NC[C@H](O)COc1cccc2c1CCCC2=O [levo-bunolol]
- reduction in intraocular pressure, thixotropic versus aqueous (glaucomatous monkeys [4]): almost identical
- decrease in heart rate, thixotropic relative to aqueous solution (glaucomatous monkeys [5]; 0.25% w/v, 8 μl thixotropic versus approximately 35 μl aqueous): 65%
- heart rate response (glaucomatous monkeys [5]; prior art aqueous delivery vehicle): undesirable decrease in heart rate

Compound: CC1COc2c(N3CCN(C)CC3)c(F)cc3c(=O)c(C(=O)O)cn1c23 (centres unmarked) [ofloxacin]
- activity lost after gamma radiation [1]: No more than 5%

Compound: FC1(F)C(F)(F)C(F)(F)C2(F)C(F)(F)C(F)(F)C(F)(F)C(F)(F)C2(F)C1(F)F (centres unmarked) [perfluorodecalin, Perfluoro(decahydronaphthalene)]
- Density [2]: 1.929 gms/mL
- Kin. viscosity [2]: 2.9 cSt
- Specific heat [2]: 0.22 g-cal/gm
- Surface tension [2]: 19.3 dynes/cm
- Boiling point [2]: 142 °C
- specific gravity ([2]; used to convert drop weight to volume): 1.93 g/mL
- chemical toxicity to CHO cells (CHO cells): Neither the perfluorodecalin nor the CSD/perfluorodecalin formulations exhibited any chemical toxicity
- toxicity (cornea) ([6]; 6 topical doses of 8 μl at one hour intervals): no discomfort, irritation, or toxicity
- eye discomfort ([6]; rabbit, in vivo): no discomfort, irritation, or toxicity
- irritation (conjunctiva) ([6]; rabbit, in vivo): no discomfort, irritation, or toxicity
- viscosity of pure perfluorodecalin without CSD [7]: 9.2 centipoise
- Newtonian viscosity ([7]; 0% CSD): 0.092 poise

Compound: CC[C@@H]1C(=O)OC[C@@H]1Cc1cncn1C [pilocarpine]
- recovery period of pupil diameter (rabbit eyes [8]; nonaqueous formulation versus aqueous): prolonged recovery period
- reduction in pupil size (rabbit eyes [8]; nonaqueous thixotropic versus aqueous, equivalent drug concentrations, 8 μl): greater pharmaceutical effect, i.e. a reduction in pupil size

Compound: CC(=O)OCC(=O)[C@@]1(O)CC[C@H]2[C@@H]3CCC4=CC(=O)C=C[C@]4(C)[C@H]3[C@@H](O)C[C@@]21C [prednisolone acetate]
- activity lost after gamma radiation [1, 9]: No more than 5%

Compound: Cc1nnc(SCC2=C(C(=O)O)N3C(=O)[C@@H](NC(=O)Cn4cnnn4)[C@H]3SC2)s1 [sodium cephazolin]
- activity lost after gamma radiation [1]: No more than 5%

Compound: O=C(O)c1cc(=O)c2c(OCC(O)COc3cccc4oc(C(=O)O)cc(=O)c34)cccc2o1 [sodium cromoglycate]
- activity lost after gamma radiation [1]: No more than 5%

Compound: CC(C(=O)O)c1ccc(-c2ccccc2)c(F)c1 (centres unmarked) [sodium flurbiprofen]
- activity lost after gamma radiation [1]: No more than 5%

Compound: CC(C)(C)NC[C@H](O)COc1nsnc1N1CCOCC1 [timolol]
- activity lost after gamma radiation [1, 9]: No more than 5%

Source: patent publication US5480914A, “Nonaqueous thixotropic drug delivery suspensions and methods of their use” (priority 1994, dated 1996)
